# Experimental data as given in article PMC6412891, “Synthesis and Biological Evaluation of Novel Thiazolyl-Coumarin Derivatives as Potent Histone Deacetylase Inhibitors with Antifibrotic Activity” (Molecules, 2019).
# Tests used:
# [1] = system: histone H4-acetylated in CFs; test: Histone H4-acetylated expression in cardiac fibroblasts, western blot; assay type: cell-based, rat; settings: 5 μM for 8 h, vs. control
# Experimental: For this purpose, CFs of neonatal rats were incubated in the presence/absence of the 5a, 6a, 7a and 8a derivatives, and the expression of histone H4–acetylated was measured using the western blot technique.
# For the analysis of the protein expression of histone H4–acetylated (ac–H4) and total H4 histone, a number of 1 × 10^6 of CFs seeded in 60 mm plates was used, […] Subsequently, total histones were extracted by the technique of saline precipitation (high salt extraction). Briefly, CFs were scraped from the plates with 1 mL of cold PBS transferring their contents to Eppendorf tubes to be centrifuged for 60 s at 1500 rpm at 4 °C and re–suspended in 400 μL of cold buffer A (10 mM 4-(2-hydroxyethyl)-1-piperazineethanesulfonic acid-KOH (HEPES-KOH) adjusted to pH 7.9, 1.5 mM MgCl2, 10 mM KCl, 0.5 mM dithiothreitol and 0.2 mM phenylmethylsulfonyl fluoride (PMSF). The suspension is left on ice for 10 min and then placed in the vortex for 10 s. The samples were centrifuged for 60 s, subsequently discarding the supernatant fraction. The obtained pellet was re-suspended in 60 μL of cold C buffer (20 mM HEPES-KOH adjusted to pH 7.9, 25% glycerol, 420 mM NaCl, 1.5 mM MgCl2, 0.2 mM EDTA, dithiothreitol 0.5 mM and 0.2 mM PMSF) and placed on ice for 20 min for saline precipitation. Cell debris is removed by centrifugation for 120 s at 1500 rpm at 4 °C and the supernatant fraction, which contains the DNA binding proteins, is stored at minus 20 °C. For the analysis of α–SMA and procollagen type I expression levels, 3×10^5 CFs seeded in 35 mm plates were used, which were incubated together with inhibitor compounds at a 5 μM, in the absence/presence of TGF–β1 (5 ng/mL) for 48 h. To obtain the total proteins, the CFs were washed three times with cold PBS, then scraped and lysed with 50 μL of radio inmuno-precipitation assay (RIPA) lysis buffer (10 mM Tris–HCl pH 7.2, 5 mM EDTA, 150 mM NaCl, Triton X–100 1%, sodium dodecyl sulfate (SDS) 0.1%, deoxycholate 1%, leupeptin 2 μg/mL, aprotinin 10mM, PMSF 1mM and Na3VO4 100μM). The solution was centrifuged for 15 min at 10,000 rpm and at 4 °C. The supernatant fraction containing the total proteins was stored at minus 20 °C. The concentration of proteins obtained was determined by spectrophotometry at 570 nm, using the Bradford method (Bio-Rad, Hercules, CA, USA).
# CFs proteins (25 μg), were subjected to 10% sodium dodecyl sulfate-polyacrylamide gel electrophoresis and finally transferred onto a nitrocellulose membrane (Millipore, Billerica, MA, USA). The membrane was washed twice with tris–buffered saline solution containing 0.1% Tween 20 (TBST). […]
# Figure 3 CTz non–substituted derivatives inhibit histone H4 acetylation. […] Nuclear extracts were isolated and histone H4 acetylation expression levels were measured by western blot. […]
# [2] = target: T1, HDAC1 human recombinant (Homo sapiens, UniProt Q13547); test: HDAC1 inhibitory activity, fluorometric kit; assay type: biochemical; settings: Class I
# T1 construct: purchased Enzo Life Science BML-AK511
# [3] = Cytotoxicity assay (Alamar Blue) in cardiac fibroblasts; assay type: cell-based, rat; settings: Sprague-Dawley, rat, primary neonatal rat cardiac fibroblasts (CFs), CFs treated for 48 h
# [4] = system: HDACs HeLa cells nuclear extract; test: HDAC inhibitory activity, fluorometric kit, HeLa cell nuclear extract; assay type: biochemical, human; settings: HeLa cell nuclear extract as HDAC source
# T1 sequence (Q13547 whole entry): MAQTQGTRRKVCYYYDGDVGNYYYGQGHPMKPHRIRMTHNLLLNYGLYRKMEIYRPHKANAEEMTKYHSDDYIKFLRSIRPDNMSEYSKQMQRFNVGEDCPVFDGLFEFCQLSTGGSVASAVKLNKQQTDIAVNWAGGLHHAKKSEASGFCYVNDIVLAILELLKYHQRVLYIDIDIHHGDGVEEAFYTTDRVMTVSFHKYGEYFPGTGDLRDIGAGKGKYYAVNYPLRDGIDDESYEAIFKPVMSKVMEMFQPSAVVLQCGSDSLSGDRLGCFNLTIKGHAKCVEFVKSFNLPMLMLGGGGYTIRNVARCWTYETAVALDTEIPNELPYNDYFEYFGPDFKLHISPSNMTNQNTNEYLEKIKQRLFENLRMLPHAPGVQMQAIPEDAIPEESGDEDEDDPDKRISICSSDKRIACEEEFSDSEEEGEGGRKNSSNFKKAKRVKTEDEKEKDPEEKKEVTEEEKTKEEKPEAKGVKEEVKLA
SMILES,histone H4-acetylated expression [1],IC50 [2],CC50 at 48 h [3],IC50 [4]
"O=C(CCCCC1CCSS1)Nc1nc(-c2cc3ccccc3oc2=O)cs1 (stereo not shown) [Compound 5a, 5-[1,2]-Dithiolan-3-yl-N-[4-(2-oxo-2H-chromen-3-yl)-thiazol-2-yl]-pentanamide]",increase in a statistically significant manner,60.4 ± 1.7 nM,201 ± 20.3 µM,66.7 ± 2.9 nM
O=C(Nc1nc(-c2cc3ccccc3oc2=O)cs1)c1ccc(O)c(O)c1 [Compound 6a],increase in a statistically significant manner,423 ± 30.2 nM,140 ± 11.7 µM,574 ± 24.4 nM
"O=C(CCCCC(=O)Nc1nc(-c2cc3ccccc3oc2=O)cs1)NO [Compound 8a, 5-[4-(2-Oxo-2H-chromen-3-yl)-thiazol-2-yl-carbamoyl]-N-hydroxypentanamide]",increase in a statistically significant manner,50.6 ± 2.1 nM,90.5 ± 5.1 µM,66.9 ± 1.8 nM
O=C(O)CCCCC(=O)Nc1nc(-c2cc3ccccc3oc2=O)cs1 [Compound 7a],had no effect,7690 ± 328 nM,111 ± 4.4 µM,6100 ± 390 nM
